# PMC7955127, “Preclinical small molecule WEHI-7326 overcomes drug resistance and elicits response in patient-derived xenograft models of human treatment-refractory tumors” (Cell Death & Disease, 2021)
# Key:
# SW480 = assay: Cell growth inhibition assay, SW480; assay type: cell-based, human
# Protocol: (§1) Cells were plated at a density of between 500 to 5000 cells per well for adherent cell lines depending on doubling time, and 15,000 cells per well for lymphoblastic leukemia cell lines, in a 96-well plate in 200 μl of growth media. Plates were incubated overnight at 37 °C before adding the inhibitors. Inhibitors were serially diluted from the stock solutions in complete medium and added to the cells. Incubation in the presence of inhibitors was continued for 72 days. Cell viability was assessed by the AlamarBlue (Invitrogen) or CellTiterBlue/Glo (Promega) method according to manufacturer’s instructions. The curve fits and IC50 values were generated in PRISM (GraphPad, San Diego, CA).
# a Chemical structures of the triazine-based anti-mitotics used in this study. b Dose-dependent antiproliferative activity of key derivatives and comparison with commonly used anti-mitotics in SW480 cell line: Data shown is cell viability (as measured by CellTiterGlo) after 72 h relative to untreated control cells. Shown is mean of 3 independent experiments performed in duplicate +/- SEM. c Dose-dependent cell cycle analysis of key derivatives of WEHI-7326 development in SW480 cell line. Data are presented as percentage of cells in G2/M or subG0 after 24 h incubation with titration of inhibitors as assessed by PI staining and flow cytometry. Mean average of 3 experiments +/- SEM. d Comparison of IC50 and EC50 values of triazine compounds and anti-mitotic drugs in SW480 cell line: inhibition of cellular proliferation and cell cycle arrest in G2/M. IC50 and EC50 values are the mean of 3 independent experiments run in duplicates +/- SEM (n.d. = not determined). e HepG2 cytotoxic assay: cell viability assay after 48 h, normalised to 0.4% DMSO (100% viability) and 2 μM bortezomib (0% viability). The data is the mean average of 2 experiments +/- SD.
# 134036 HGSOC PDX = assay: HGSOC PDX model 134036; assay type: in vivo, NSG mice; settings: 134036 C5 platinum refractory PDX; 20 mg/kg i.v. biweekly, 6 weeks
# Protocol: Two to three mm ovarian tumor fragments were subcutaneously engrafted in the left flank of NSG mice and monitored by physical palpation for tumor growth and engraftment. Engrafted tumors were measured twice a week using digital Vernier calipers and maximum tumor diameter + perpendicular tumor length were digitally recorded into the Study Director software (v 3.0/4.0 StudyLog). Tumor volume was calculated automatically (tumor volume (mm^3) = 0.5236 x [larger diameter (mm) x smaller diameter (mm)^2]). Mice were randomized to treatment once their tumor volume reach 180–300 mm^3 and tumor measurements were performed twice a week up to 120 days or when the tumor volume reaches 700 mm^3.
# Time to progressive disease (PD): Defined as the time (in days) from beginning of treatment to an increase in average tumor volume of >20% from the nadir (taken as the smallest average tumor volume recorded since treatment started or 200 mm^3 if nadir was <200 mm^3 as lesions smaller than this are difficult to measure with accuracy). Median time to harvest (TTH): Defined as the time (in days) from the beginning of treatment to day of harvest at 700 mm^3 and the median TTH was calculated and plotted using Kaplan-Meier curves. Based on ref. [27]. […]
# [1] = system: PC3 (human prostate carcinoma) xenograft; assay: PC3 tumor xenograft in nude mice; assay type: in vivo, Balb/c nude mice; settings: male nude mice, day 17, biweekly i.v.
# Protocol: LoVo (4 × 10^6), PC3 (3 × 10^6) or MDA-MB-231 LNA DRE (10^6) cells were collected by trypsination and injected with 50 μl 1:1 PBS:Matrigel (v/v) subcutaneously on the right flank of 18 female (LoVo), 40 male (PC3) or into 4th mammary fat pad of 40 female (MDA231) Balb/c nude mice. Tumor growth was monitored and average tumor size at commencement of dosing was 100 mm^3. Mice were randomized into 3 arms of each 5 (LoVo), 10 (PC3) or 12 (MDA23) mice respectively and treatment with vehicle (saline), WEHI-7326 (biweekly) or docetaxel (weekly) was administered via tail vein injection. Tumor volumes were measured at least twice weekly with calipers and the experiments were terminated when tumors in the control group started exceeding 1500 mm^3. For LoVo, both vehicle and 25 mg/kg WEHI-7326 groups were harvested 24 h, but 20 mg/kg WEHI-7326 group harvested 1 h post final dose. For PC3, docetaxel group was not harvested in an attempt to grow out resistant tumors.
# [2] = system: U87MG-(Δ2–7) (glioblastoma) xenograft; assay: U87MG-(Δ2–7) tumor xenograft in nude mice; assay type: in vivo, BALB/c nude mice; settings: U87MG-(Δ2–7) xenograft, i.p. three times weekly
# Protocol: Tumor cell lines LIM2537, U87MGΔ2–7EGFR or H1437 were collected by trypsinization, counted and injected at 5 × 10^6 cells/ site subcutaneously on both flanks of BALB/c nude mice. Treatment with vehicle control or WEHI-7326 at given dose was initiated after 5 days. Drug or vehicle (100 μl) was injected intraperitoneally three times weekly. Control group and treatment group consisted of 8 mice each. Tumors were measured twice weekly with calipers. Tumor volumes were estimated using the modified ellipsoid formula V = 1/2 (length × width^2). The experiments were terminated when tumors in the control group started ulcerating or exceeded 17 mm in length, in line with the LICR/DoS Animal Ethics Committee guidelines (11/05 A).
# LIM1899 = assay: Cell growth inhibition assay, LIM1899; assay type: cell-based; settings: Homo sapiens; LIM1899, colon carcinoma; 72 h viability assay, CellTiterGlo; mean of 3 ± SEM; read-out: IC50 (inhibition of cellular proliferation)
# Protocol: as §1, with “Incubation in the presence of inhibitors was continued for 72 days.” left out
smiles,measurement,setting,value
COc1ccc(CNc2nc(NCc3ccc(CN)cc3)nc(NN3CC(=O)NC3=O)n2)cc1 [WEHI-7326],IC50,"SW480; Homo sapiens, SW480, colon carcinoma, 72 h viability assay, CellTiterGlo, mean of 3 ± SEM, read-out: IC50 (inhibition of cellular proliferation)",39.5 ± 4.1 nM
same,Potency relative to myoseverin B,SW480; SW480,almost ten-fold
same,Concentration inhibiting proliferation,SW480; SW480 colon cancer cell line in vitro,at or below micromolar concentration
same,Tumor response,134036 HGSOC PDX,completely unresponsive
same,Tumor growth inhibition (TGI),[1],~ 75%
same,Tumor growth,[2],effective in reducing tumor growth
same,IC50,LIM1899,31.3 ± 2.6 nM
